Biological target: T1, MAGE-A11:PCF11 interaction (GST-MAGE-A11 and FAM-PCF11_4) (Homo sapiens, UniProt P43364)
T1 construct: GST-MAGE-A11 MHD (human MAGE-A11 MHD amino acid 218-429); made in house; host or cells: E. coli BL21(DE3)
T1 sequence (P43364 218-429): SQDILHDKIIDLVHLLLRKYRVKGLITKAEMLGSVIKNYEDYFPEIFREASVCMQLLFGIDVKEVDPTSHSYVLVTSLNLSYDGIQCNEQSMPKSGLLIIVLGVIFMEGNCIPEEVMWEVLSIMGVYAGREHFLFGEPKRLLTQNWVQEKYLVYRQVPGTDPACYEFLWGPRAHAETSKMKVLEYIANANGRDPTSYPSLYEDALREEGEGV
Experiment: TR-FRET primary / single point screen at 15 µM
Format: binding
Procedure, shortened: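 Single-point screen at 15 µM final compound in 50 mM Tris pH 7.5, 20 mM MgCl2, 0.1 mg/ml BSA, 1 mM DTT, with 200 nM FAM-PCF11_4, 5 nM Tb-anti-GST and 5 nM GST-MAGE-A11. After 90 min at room temperature, the 520/490 nm TR-FRET ratio (340 nm excitation) gave %Inhibition against no-MAGE-A11 and DMSO controls.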

[1] = single point TR-FRET screening of 797 quinoline compounds against MAGE-A11:PCF11
[2] = single point TR-FRET screening of quinoline compounds against MAGE-A11:PCF11, 15 µM

Compound	percent inhibition (TR-FRET) [1]	percent inhibition (TR-FRET) [2]
O=C(O)c1ccccc1CN(CCCCNc1ccnc2cc(Cl)ccc12)Cc1ccccc1 [SJ000361203]	4.099	–
CCc1ccc2ncc(S(=O)(=O)c3ccccc3)c(N3CCN(CC)CC3)c2c1 [SJ000083957]	3.238	–
CCOC(=O)c1cnc2c(Cl)cc(Cl)cc2c1NCCCN1CCOCC1 [SJ000176476]	–	-2.118
CCc1ccc2ncc(S(=O)(=O)c3ccc(C)c(C)c3)c(N3CCN(C)CC3)c2c1 [SJ000247332]	2.973	–
C#CCOCC(O)CN1CCN(c2cc(C)nc3ccccc23)CC1 (centres unmarked) [SJ000227655]	6.55	–
CCC(CC)CN(CCCCNc1ccnc2cc(Cl)ccc12)Cc1ccccc1 [SJ000361195]	25.5382	–
C=CCOCC(O)CN1CCN(c2cc(C)nc3ccccc23)CC1 (centres unmarked) [SJ000227652]	-0.207	–
CCCN(CCCNc1ccnc2cc(C(F)(F)F)ccc12)Cc1ccncc1 [SJ000361251]	–	17.4864
CCCN(CCCNc1ccnc2cc(C(F)(F)F)ccc12)Cc1ccc(F)c(F)c1 [SJ000361272]	–	13.8395
CCCN(CCCCNc1ccnc2cc(Cl)ccc12)Cc1ccc[nH]1 [SJ000311198]	-0.9977	–
O=S(=O)(c1ccccc1)c1cnc2ccc(F)cc2c1N1CCN(Cc2ccccc2)CC1 [SJ000247257]	-62.2806	–
Cc1cc(NC(=O)CN2CCN(C)CC2)c2ccccc2n1 [SJ000111680]	4.6472	–
CCOc1ccc2ncc(S(=O)(=O)c3ccc(C)cc3)c(N3CCN(CC)CC3)c2c1 [SJ000083964]	-5.899	–
Clc1ccc2c(NCCCN(Cc3ccccc3)Cc3c[nH]c4ccccc34)ccnc2c1 [SJ000520433]	–	40.1907
c1ccc(Cc2ccc3c(NCCCNCc4ccco4)ccnc3c2)cc1 [SJ000311306]	–	64.537
CCc1ccc(S(=O)(=O)c2cnc3ccccc3c2N2CCN(Cc3ccccc3)CC2)cc1 [SJ000117086]	-55.2584	–
CCOC(=O)c1cnc2c(C)cc(Cl)cc2c1NCCN(C)C [SJ000027210]	3.834	–

Compound	percent inhibition (TR-FRET) [1]	percent inhibition (TR-FRET) [2]
CCCCCN(CCC)CCCNc1ccnc2cc(C(F)(F)F)ccc12 [SJ000361271]	–	30.9303
CCCN(CCCCNc1ccnc2cc(Cl)ccc12)Cc1cc(F)ccc1OC [SJ000311202]	5.3962	–
CCOC(=O)c1cnc2ccc(F)cc2c1NCCCN1CCOCC1 [SJ000279864]	–	-0.3915
CCCN(CCCNc1ccnc2cc(Cl)ccc12)CCCSC [SJ000357576]	–	7.824
CCCN(CCCNc1ccnc2cc(C(F)(F)F)ccc12)Cc1ccc(C)s1 [SJ000361258]	–	19.0825
Clc1ccc2c(NCCCN(Cc3ccccc3)Cc3nccs3)ccnc2c1 [SJ000312676]	–	-4.148
CCN1CCN(c2c(S(=O)(=O)c3ccc(C)c(C)c3)cnc3ccc(F)cc23)CC1 [SJ000247345]	1.118	–
O=C(CN1CCN(C(=O)c2ccccc2)CC1)Nc1c2c(nc3ccccc13)N(c1cccc(Cl)c1)CC2 [SJ000111683]	-264.327	–
COc1ccc(F)cc1CN(CCCNc1ccnc2cc(Cl)ccc12)Cc1ccccc1 [SJ000357495]	–	6.683
COc1ccc2ncc(S(=O)(=O)c3ccc(C)c(C)c3)c(N3CCN(c4ccccc4)CC3)c2c1 [SJ000117051]	-52.476	–
CCCCN(CCCNc1ccnc2cc(Cl)ccc12)Cc1ccccc1 [SJ000357579]	–	19.3068
COc1ccc(OC(F)(F)F)cc1CN(CCCNc1ccnc2cc(Cl)ccc12)Cc1ccccc1 [SJ000520452]	–	20.4443
CCOC(=O)c1cnc2c(Cl)cc(Cl)cc2c1NCCN1CCOCC1 [SJ000175864]	-13.059	–
CCOc1ccc2ncc(S(=O)(=O)c3ccc(C)c(C)c3)c(N3CCN(C)CC3)c2c1 [SJ000247354]	-14.0527	–
COc1ccc(N2CCN(c3c(S(=O)(=O)c4ccccc4)cnc4ccc(Cl)cc34)CC2)cc1 [SJ000083983]	-17.9415	–
Clc1ccc2c(NCCCCN(Cc3ccccc3)Cc3ccc(Br)s3)ccnc2c1 [SJ000312688]	22.0375	–

More lines, now with the values ahead:

percent inhibition (TR-FRET) [1]	percent inhibition (TR-FRET) [2]	Compound
-212.396	–	CCCN(CCCNc1c2ccc(Cl)cc2nc2ccc(OC)cc12)CCOCc1ccccc1 [SJ000522981]
-394.576	–	CCCN(CCCNc1c2ccc(Cl)cc2nc2ccc(OC)cc12)Cc1ccoc1 [SJ000520937]
–	19.8658	CCCN(CCCNc1ccnc2cc(Cl)ccc12)Cc1c(F)c(F)c(F)c(F)c1F [SJ000522748]
–	15.666	CCCN(CCCNc1ccnc2cc(Cl)ccc12)Cc1cc(OC(F)(F)F)ccc1OC [SJ000523011]
-2.0257	–	O=[N+]([O-])c1ccccc1CN1CCC(Nc2ccnc3cc(Cl)ccc23)CC1 [SJ000523094]
–	-73.5426	COc1ccc2nc3cc(Cl)ccc3c(NCCCNCc3cccc(OC(F)(F)F)c3)c2c1 [SJ000520988]
-175.453	–	CCCN(CCCNc1c2ccc(Cl)cc2nc2ccc(OC)cc12)Cc1ccc(OC)c(OC)c1 [SJ000520957]
–	13.0054	CCCN(CCCNc1ccnc2cc(C(F)(F)F)ccc12)Cc1cc2ccccc2s1 [SJ000520482]
-6.179	–	Clc1ccc2c(NC3CCN(Cc4cccc5ccccc45)CC3)ccnc2c1 [SJ000523099]
–	7.1241	CCCN(CCCNc1ccnc2cc(C(F)(F)F)ccc12)Cc1nccn1C [SJ000575170]
–	19.5869	COC(=O)CCCCCNCCCNc1ccnc2cc(C(F)(F)F)ccc12 [SJ000521044]
-390.355	–	CCc1ccc(CNCCCNc2c3ccc(Cl)cc3nc3ccc(OC)cc23)cc1 [SJ000521005]
–	-1.532	CCCN(CCCNc1ccnc2cc(Cl)ccc12)Cc1cn(C)c2ccccc12 [SJ000522995]
–	14.3161	CCCN(CCCNc1ccnc2cc(C(F)(F)F)ccc12)Cc1cccc2ccccc12 [SJ000523074]
–	4.165	CCCN(CCCNc1ccnc2cc(Cl)ccc12)Cc1ncc[nH]1 [SJ000523008]
-456.31	–	COc1ccc2nc3cc(Cl)ccc3c(NCCCNCCC(C)(C)C)c2c1 [SJ000520994]
-2.194	–	O=C(O)c1ccccc1CN1CCC(Nc2ccnc3cc(Cl)ccc23)CC1 [SJ000523098]
–	14.1686	CCCN(CCCNc1c2ccc(Cl)cc2nc2ccc(OC)cc12)Cc1ccccc1C(F)(F)F [SJ000520928]
-116.734	–	COc1ccc2nc3cc(Cl)ccc3c(NCCCNCc3c(F)cccc3C(F)(F)F)c2c1 [SJ000520999]
–	8.665	CCCN(CCCNc1ccnc2cc(C(F)(F)F)ccc12)Cc1nccs1 [SJ000575189]
–	9.085	CCCN(CCCNc1ccnc2cc(C(F)(F)F)ccc12)Cc1cccc(OC(F)(F)F)c1 [SJ000520473]
-164.134	–	CCCN(CCCNc1c2ccc(Cl)cc2nc2ccc(OC)cc12)Cc1cccs1 [SJ000520920]
–	32.3298	CCCN(CCCNc1ccnc2cc(C(F)(F)F)ccc12)CCC(C)(C)C [SJ000520476]

Source: article PMC7529893, “Structural basis for substrate recognition and chemical inhibition of oncogenic MAGE ubiquitin ligases” (Nature Communications, 2020)
